According to patent US20230265151A1, “GIP/GLP1 CO-AGONIST COMPOUNDS” (priority 2020, published 2023):
Like-named read-outs stand apart in the source and are kept apart here.

Columns and labels:
Assay type in all cases: cell-based
[1] = biological target: T1, hGCGR (Homo sapiens, UniProt P47871); assay: Functional cAMP formation (HTRF) in HEK-293 clonal cells expressing hGCGR, 0.1% bovine casein, without or with 1.0% human serum albumin; conditions: hGCGR EC50, nM (SEM, n), cAMP, 37° C.
T1 construct: expressed in transfected cells
How it was run: (§1)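 Readings of the HTRF 665/620 nm ratio, which falls as cAMP rises, were converted to nM cAMP using a standard curve after 30 min peptide exposure at 37° C.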

[2] = biological target: hGLP-1R (Homo sapiens, UniProt P43220); assay: Functional cAMP formation (HTRF) in HEK-293 clonal cells expressing hGLP-1R, 0.1% bovine casein, without or with 1.0% human serum albumin; parameters: expressed in transfected cells; conditions: for Emax: percent of maximal response to GLP-1(7-36)NH2; for EC50: hGLP-1R EC50, nM (SEM, n), cAMP, 37° C.
How it was run: as §1

[3] = biological target: T2, hGIPR (Homo sapiens, UniProt P48546); assay: Functional cAMP formation (HTRF) in HEK-293 clonal cells expressing hGIPR, 0.1% bovine casein, without or with 1.0% human serum albumin; conditions: for Emax: percent of maximal response to GIP(1-42)NH2; for EC50: hGIPR EC50, nM (SEM, n), cAMP, 37° C.
T2 construct: expressed in transfected cells
T2 sequence (P48546 22-466): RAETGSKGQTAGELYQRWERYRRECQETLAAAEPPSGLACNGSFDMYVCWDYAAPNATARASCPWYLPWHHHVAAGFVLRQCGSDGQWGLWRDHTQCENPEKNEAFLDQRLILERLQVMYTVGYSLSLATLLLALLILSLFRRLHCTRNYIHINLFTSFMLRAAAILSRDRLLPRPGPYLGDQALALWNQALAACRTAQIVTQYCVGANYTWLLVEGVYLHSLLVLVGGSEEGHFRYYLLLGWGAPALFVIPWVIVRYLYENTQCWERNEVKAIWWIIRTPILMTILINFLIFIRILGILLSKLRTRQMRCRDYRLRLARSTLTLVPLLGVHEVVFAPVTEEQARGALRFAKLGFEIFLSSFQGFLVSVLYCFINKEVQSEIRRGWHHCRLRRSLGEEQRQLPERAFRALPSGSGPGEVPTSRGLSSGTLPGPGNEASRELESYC
How it was run: as §1

[4] = 0.1% bovine casein (no human serum albumin), geometric mean
[5] = 0.1% bovine casein and 1.0% human serum albumin, geometric mean (SEM, n)
[6] = HEK293, read-out: hGLP-1R Emax, % ± SEM, cAMP, 37° C., 0.1% bovine casein, arithmetic mean
[7] = HEK293, read-out: hGIPR Emax, % ± SEM, cAMP, 37° C., 0.1% bovine casein and 1.0% human serum albumin
[8] = HEK293, read-out: hGIPR Emax, % ± SEM, cAMP, 37° C., 0.1% bovine casein, arithmetic mean
[9] = HEK293, read-out: hGLP-1R Emax, % ± SEM, cAMP, 37° C., 0.1% bovine casein and 1.0% human serum albumin

Sequence of hGLP-1R (P43220 24-463): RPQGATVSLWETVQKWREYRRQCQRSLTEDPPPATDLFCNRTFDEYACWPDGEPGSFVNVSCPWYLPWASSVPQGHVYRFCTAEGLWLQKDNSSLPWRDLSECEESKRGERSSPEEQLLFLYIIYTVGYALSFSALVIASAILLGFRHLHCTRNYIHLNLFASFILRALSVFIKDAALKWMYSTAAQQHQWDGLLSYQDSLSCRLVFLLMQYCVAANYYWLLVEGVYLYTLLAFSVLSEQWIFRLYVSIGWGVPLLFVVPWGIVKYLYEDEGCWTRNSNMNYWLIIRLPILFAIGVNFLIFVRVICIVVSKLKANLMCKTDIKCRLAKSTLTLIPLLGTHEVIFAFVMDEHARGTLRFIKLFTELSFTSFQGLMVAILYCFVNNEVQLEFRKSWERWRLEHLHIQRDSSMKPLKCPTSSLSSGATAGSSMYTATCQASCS
T1 sequence (P47871 26-477): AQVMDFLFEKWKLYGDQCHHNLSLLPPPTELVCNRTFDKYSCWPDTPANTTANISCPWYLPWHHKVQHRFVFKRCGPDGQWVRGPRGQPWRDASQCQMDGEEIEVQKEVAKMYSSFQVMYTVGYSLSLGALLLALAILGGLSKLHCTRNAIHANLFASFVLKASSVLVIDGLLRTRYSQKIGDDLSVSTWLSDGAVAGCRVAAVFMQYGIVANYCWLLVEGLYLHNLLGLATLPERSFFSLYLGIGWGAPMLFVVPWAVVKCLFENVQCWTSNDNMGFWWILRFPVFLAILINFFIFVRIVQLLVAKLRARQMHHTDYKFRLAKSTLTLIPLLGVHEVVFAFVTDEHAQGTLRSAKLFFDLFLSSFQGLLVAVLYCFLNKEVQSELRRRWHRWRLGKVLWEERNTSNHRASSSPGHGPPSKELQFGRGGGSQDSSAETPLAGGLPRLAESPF

Row | Structure (SMILES) | EC50 [1, 4] [nM] | EC50 [1, 5] [nM] | Emax [2, 6] [%] | EC50 [2, 4] [nM] | Emax [3, 7] [%] | Emax [3, 8] [%] | EC50 [3, 4] [nM] | EC50 [2, 5] [nM] | Emax [2, 9] [%] | EC50 [3, 5] [nM]
1 | CC[C@H](C)[C@H](NC(=O)[C@H](CC(C)C)NC(=O)[C@](C)(Cc1ccc(O)cc1)NC(=O)[C@@H](CCC(=O)O)NC(=O)[C@@H](NC(=O)[C@H](Cc1ccccc1)NC(=O)[C@H](CCCCNC(=O)COCCOCCNC(=O)COCCOCCNC(=O)CCCCCCCCCOc1ccc(C(=O)O)cc1)NC(=O)C(C)(C)NC(=O)[C@H](CCC(N)=O)NC(=O)[C@H](C)NC(=O)[C@H](CCCCNC(=O)COCCOCCNC(=O)COCCOCCNC(=O)CCCCCCCCCOc1ccc(C(=O)O)cc1)NC(=O)[C@H](CCCN)NC(=O)[C@H](CC(=O)O)NC(=O)[C@H](CC(C)C)NC(=O)[C@](C)(CC(C)C)NC(=O)[C@@H](NC(=O)C(C)(C)NC(=O)[C@H](Cc1ccncc1)NC(=O)[C@H](CC(=O)O)NC(=O)[C@H](CO)NC(=O)[C@@H](NC(=O)[C@](C)(Cc1ccccc1F)NC(=O)[C@@H](NC(=O)CNC(=O)[C@H](CCC(=O)O)NC(=O)C(C)(C)NC(=O)[C@@H](N)Cc1ccc(O)cc1)[C@@H](C)O)[C@@H](C)O)[C@@H](C)CC)[C@@H](C)CC)C(=O)N[C@@H](CCC(=O)O)C(=O)NCC(=O)NCC(=O)N1CCC[C@H]1C(=O)N[C@@H](CO)C(=O)N[C@@H](CO)C(=O)NCC(=O)N[C@@H](C)C(=O)N1CCC[C@H]1C(=O)N1CCC[C@H]1C(=O)N1CCC[C@H]1C(=O)N[C@@H](CO)C(N)=O [Example 392] | > 9950 | > 9950 | 97.9 | 0.521 | 85.7 | 94.4 | 0.0107 | – | – | –
2 | CC[C@H](C)[C@H](NC(=O)[C@H](CC(C)C)NC(=O)[C@](C)(Cc1ccc(O)cc1)NC(=O)[C@@H](CCC(=O)O)NC(=O)[C@@H](NC(=O)[C@H](Cc1ccccc1)NC(=O)[C@H](CCCCNC(=O)COCCOCCNC(=O)COCCOCCNC(=O)CCCCCCCCCOc1ccc(C(=O)O)cc1)NC(=O)C(C)(C)NC(=O)[C@H](CCC(N)=O)NC(=O)[C@H](C)NC(=O)[C@H](CCCCNC(=O)COCCOCCNC(=O)COCCOCCNC(=O)CCCCCCCCCOc1ccc(C(=O)O)cc1)NC(=O)[C@H](CCCN)NC(=O)[C@H](CC(=O)O)NC(=O)[C@H](CC(C)C)NC(=O)[C@](C)(CC(C)C)NC(=O)[C@@H](NC(=O)C(C)(C)NC(=O)[C@H](Cc1ccc(O)cc1)NC(=O)[C@H](CC(=O)O)NC(=O)[C@H](CO)NC(=O)[C@@H](NC(=O)[C@](C)(Cc1ccccc1F)NC(=O)[C@@H](NC(=O)CNC(=O)[C@H](CCC(=O)O)NC(=O)C(C)(C)NC(=O)[C@@H](N)Cc1ccc(O)cc1)[C@@H](C)O)[C@@H](C)O)[C@@H](C)CC)[C@@H](C)CC)C(=O)N[C@@H](CCC(=O)O)C(=O)NCC(=O)NCC(=O)N1CCC[C@H]1C(=O)N[C@@H](CO)C(=O)N[C@@H](CO)C(=O)NCC(=O)N[C@@H](C)C(=O)N1CCC[C@H]1C(=O)N1CCC[C@H]1C(=O)N1CCC[C@H]1C(=O)N[C@@H](CO)C(N)=O [Example 393] | > 9950 | > 9950 | 96.8 | 0.372 | 66.7 | 94.3 | 0.0115 | 9.18 | – | –
3 | CC[C@H](C)[C@H](NC(=O)[C@H](CC(C)C)NC(=O)[C@](C)(Cc1ccc(O)cc1)NC(=O)[C@@H](CCC(=O)O)NC(=O)[C@@H](NC(=O)[C@H](Cc1ccccc1)NC(=O)[C@H](CCCCNC(=O)COCCOCCNC(=O)COCCOCCNC(=O)CCCCCCCCCOc1ccc(C(=O)O)cc1)NC(=O)C(C)(C)NC(=O)[C@H](CCC(N)=O)NC(=O)[C@H](C)NC(=O)[C@H](CCCCNC(=O)COCCOCCNC(=O)COCCOCCNC(=O)CCCCCCCCCOc1ccc(C(=O)O)cc1)NC(=O)[C@H](CCCN)NC(=O)[C@H](CC(=O)O)NC(=O)[C@H](CC(C)C)NC(=O)[C@](C)(CC(C)C)NC(=O)[C@@H](NC(=O)C(C)(C)NC(=O)[C@@H](NC(=O)[C@H](CC(=O)O)NC(=O)[C@H](CO)NC(=O)[C@@H](NC(=O)[C@](C)(Cc1ccccc1F)NC(=O)[C@@H](NC(=O)CNC(=O)[C@H](CCC(=O)O)NC(=O)C(C)(C)NC(=O)[C@@H](N)Cc1ccc(O)cc1)[C@@H](C)O)[C@@H](C)O)C(C)C)[C@@H](C)CC)[C@@H](C)CC)C(=O)N[C@@H](CCC(=O)O)C(=O)NCC(=O)NCC(=O)N1CCC[C@H]1C(=O)N[C@@H](CO)C(=O)N[C@@H](CO)C(=O)NCC(=O)N[C@@H](C)C(=O)N1CCC[C@H]1C(=O)N1CCC[C@H]1C(=O)N1CCC[C@H]1C(=O)N[C@@H](CO)C(N)=O [Example 394] | > 9950 | > 9950 | – | 0.223 | 84.6 | 97.7 | 0.0179 | 5.83 | 96.8 | 1.38
4 | CC[C@H](C)[C@H](NC(=O)[C@H](CC(C)C)NC(=O)[C@](C)(Cc1ccc(O)cc1)NC(=O)[C@@H](CCC(=O)O)NC(=O)[C@@H](NC(=O)[C@H](Cc1ccccc1)NC(=O)[C@H](CCC(=O)O)NC(=O)C(C)(C)NC(=O)[C@H](CCC(N)=O)NC(=O)[C@H](C)NC(=O)[C@H](CCCCNC(=O)COCCOCCNC(=O)COCCOCCNC(=O)CCCCCCCCCOc1ccc(C(=O)O)cc1)NC(=O)[C@H](CCCN)NC(=O)[C@H](CC(=O)O)NC(=O)[C@H](CC(C)C)NC(=O)[C@](C)(CC(C)C)NC(=O)[C@@H](NC(=O)C(C)(C)NC(=O)[C@H](Cc1ccncc1)NC(=O)[C@H](CC(=O)O)NC(=O)[C@H](CO)NC(=O)[C@@H](NC(=O)[C@](C)(Cc1ccccc1F)NC(=O)[C@@H](NC(=O)CNC(=O)[C@H](CCC(=O)O)NC(=O)C(C)(C)NC(=O)[C@@H](N)Cc1ccc(O)cc1)[C@@H](C)O)[C@@H](C)O)[C@@H](C)CC)[C@@H](C)CC)C(=O)N[C@@H](CCCCNC(=O)COCCOCCNC(=O)COCCOCCNC(=O)CCCCCCCCCOc1ccc(C(=O)O)cc1)C(=O)NCC(=O)NCC(=O)N1CCC[C@H]1C(=O)N[C@@H](CO)C(=O)N[C@@H](CO)C(=O)NCC(=O)N[C@@H](C)C(=O)N1CCC[C@H]1C(=O)N1CCC[C@H]1C(=O)N1CCC[C@H]1C(=O)N[C@@H](CO)C(N)=O [Example 395] | > 9950 | > 9950 | 90.8 | 0.377 | 57.8 | 93.1 | 0.0127 | 6.26 | 96.1 | –
5 | CC[C@H](C)[C@H](NC(=O)[C@H](CC(C)C)NC(=O)[C@](C)(Cc1ccc(O)cc1)NC(=O)[C@@H](CCC(=O)O)NC(=O)[C@@H](NC(=O)[C@H](Cc1ccccc1)NC(=O)[C@H](CCC(=O)O)NC(=O)C(C)(C)NC(=O)[C@H](CCC(N)=O)NC(=O)[C@H](C)NC(=O)[C@H](CCCCNC(=O)COCCOCCNC(=O)COCCOCCNC(=O)CCCCCCCCCOc1ccc(C(=O)O)cc1)NC(=O)[C@H](CCCN)NC(=O)[C@H](CC(=O)O)NC(=O)[C@H](CC(C)C)NC(=O)[C@](C)(CC(C)C)NC(=O)[C@@H](NC(=O)C(C)(C)NC(=O)[C@H](Cc1ccc(O)cc1)NC(=O)[C@H](CC(=O)O)NC(=O)[C@H](CO)NC(=O)[C@@H](NC(=O)[C@](C)(Cc1ccccc1F)NC(=O)[C@@H](NC(=O)CNC(=O)[C@H](CCC(=O)O)NC(=O)C(C)(C)NC(=O)[C@@H](N)Cc1ccc(O)cc1)[C@@H](C)O)[C@@H](C)O)[C@@H](C)CC)[C@@H](C)CC)C(=O)N[C@@H](CCCCNC(=O)COCCOCCNC(=O)COCCOCCNC(=O)CCCCCCCCCOc1ccc(C(=O)O)cc1)C(=O)NCC(=O)NCC(=O)N1CCC[C@H]1C(=O)N[C@@H](CO)C(=O)N[C@@H](CO)C(=O)NCC(=O)N[C@@H](C)C(=O)N1CCC[C@H]1C(=O)N1CCC[C@H]1C(=O)N1CCC[C@H]1C(=O)N[C@@H](CO)C(N)=O [Example 396] | > 9950 | > 9950 | – | 0.291 | 67.1 | 96.2 | 0.0113 | – | 94.4 | 0.595
